Laboratory results from patent US12577270B2, “2′,3′-diacetyluridine substituted with acetoacetyl at the 5′ position” (PHARMA CINQ, LLC, priority 2020, dated 2026).
Read-outs that look alike come from different tables or passages of the source.

Legend:
[1] = Plasma uridine and [uridine+uracil] in mice after oral administration of uridine prodrugs (Example 4); assay type: in vivo, Female CD-1 mice; settings: for systemic uridine delivery after oral administration: oral gavage, dose equimolar to 600 mg/Kg UTA, result in words
Excerpt: Chemical(s): HPMC (Hydroxypropyl)methyl cellulose (SIGMA-Aldrich: cat #H3785, CAS 9004-65-3); uridine triacetate (2′,3′,5′-tri-O-acetyluridine): UTA, Item Code D000156, Lot #Q000001095, made by Almac Sciences; 2′,3′,5′-tri-O-(acetoacetyl)uridine: Tri-AcAcU; 5′-O-(acetoacetyl)-2′,3′-di-O-acetyluridine: AcAcDAU; 2′,3′-di-O-acetyl-5′-O-heptanoyluridine: DA-HU. (Note: the AcAcDAU used in this experiment was the mixture of 9.4 parts 5′-O-(acetoacetyl)-2′,3′-di-O-acetyluridine and 1 part a combination of 5′-O-(acetoacetyl)-2′-O-acetyl-3′-O-formyluridine and 5′-O-(acetoacetyl)-3′-O-acetyl-2′-O-formyluridine from Example 1 above.)
(§1) Vehicle: Aqueous HPMC was used as a vehicle for oral administration of the uridine derivatives.
(§2) Dosing Formulation: UTA and other uridine derivatives were prepared in 0.75% HPMC. UTA and other uridine derivatives were added to 0.75% HPMC and homogenized to eliminate clumps. The suspension were made up to the desired volume and concentration and sonicated to disaggregate any small leftover clumps into fine particles. Suspensions were stored at 4° C. until use. Suspensions were used within 24 hrs of preparation.
Dosing: Mice received a dose of 600 mg/Kg UTA gavaged at 0.02 ml/g body weight. Other uridine derivatives were dosed in the same manner at concentrations containing amounts of uridine equimolar to UTA.
Animals: Female CD-1 mice.
The general initial layout for the experiment involved gavaging groups of 6 mice with uridine derivatives and obtaining blood samples at several times points thereafter (3 mice were bled for 2 time points (15 and 60 minutes), and another 3 mice were bled for the other 2 time points (30 and 120 minutes). Each experiment included an HPMC (vehicle only) time point with 3 mice to establish a baseline for blood uridine.
Blood samples were collected into plasma separation tubes, which were centrifuged immediately after blood collection, and aliquots of plasma were frozen for subsequent processing. Plasma was later deproteinated, and uridine and uracil were quantified by liquid chromatography using UV absorbance detection and mass spectrometry.
Delivery of uridine into the bloodstream was assessed by monitoring plasma uridine and the sum of uridine and uracil [uridine+uracil], as uracil is the first product in enzymatic degradation of uridine. Mice convert administered uridine to uracil more rapidly and extensively than do humans.

[2] = Plasma uridine, uracil and beta-hydroxybutyrate in mice after oral administration of AcAcDAU (Example 5); assay type: in vivo, Female CD-1 mice; settings: 2350 mg/Kg oral, 15-120 min, result in words
Excerpt: An important feature of 5′-O-(acetoacetyl)-2′,3′-di-O-acetyluridine (AcAcDAU) is that it yields simultaneous or concurrent delivery of both uridine and acetoacetate via a single drug molecule. Acetoacetate in plasma is in equilibrium with beta-hydroxybutyrate (BHB) mirroring free NADH/NAD+ ratios in hepatic mitochondria, and heavily favoring BHB as the more prevalent of the two ketone bodies under normal physiological conditions. Moreover, BHB is stable after blood sampling and processing, whereas acetoacetate is labile. Therefore, plasma BHB was measured along with plasma uridine in mice receiving oral AcAcDAU.
Chemical(s): HPMC (Hydroxypropyl) methyl cellulose (SIGMA-Aldrich: cat #H3785, CAS 9004-65-3), 5′-O-(acetoacetyl)-2′,3′-di-O-acetyluridine (AcAcDAU; lot #432168B). This experiment used the AcAcDAU from Example 2.
as §1
as §2, with “HPMC. AcAcDAU was” for “HPMC. UTA and other uridine derivatives were”, “The suspensions” for “The suspension”
Dosing: Mice received a dose of 2350 mg/Kg AcAcDAU gavaged at 0.02 ml/g body weight. Control mice received only the 0.75% HPMC vehicle
General Experimental Design: The general layout for the experiment involved gavaging mice with AcAcDAU and obtaining blood samples at several time points thereafter (see table below for details). The experiment included a group with 2 mice gavaged with HPMC only and bled at 60 and 120 min for determination of baseline plasma uridine.
Mice received 0.02 ml/g bodyweight of a suspension (0.75% hydroxypropylmethylcellulose in water) with a concentration of AcAcDAU of 117 mg/ml for a dose of 2,350 mg/Kg body weight. […]

[3] = test system: mice receiving 60 mg/kg/day 3-nitropropionic acid (progressive lethal mitochondrial energy failure); assay: Protection against mortality caused by 3-nitropropionic acid (Example 6, 11 day study); assay type: in vivo, Female CD-1 mice; settings: for Median Survival / % Survival: 3-NP 60 mg/kg/day ip, UTA 1000 mg/kg b.i.d. or AcAcDAU 1113.5 mg/kg b.i.d. oral; for survival time versus vehicle alone: UTA 1000 mg/kg or AcAcDAU 1113.5 mg/kg b.i.d.; for % Survival: end of 11 day study
Protocol: 5′-O-acetoacetyl-2′,3′-di-O-acetyluridine (AcAcDAU) delivers both uridine and acetoacetate (and beta-hydroxybutyrate [BHB] derived from acetoacetate) into the circulation after oral administration. A study was designed to compare relative efficacy of UTA versus AcAcDAU in a model of progressive lethal mitochondrial energy failure. Mitochondrial dysfunction was produced by daily administration of 3-nitropropionic acid (3-NP; 60 mg/kg/day) by intraperitoneal injection. 3-NP is an irreversible inhibitor of succinate dehydrogenase (Complex II of the mitochondrial electron transport chain). Daily dosing with 3-NP results in progressive diminution of mitochondrial capacity to maintain ATP production, eventually resulting in mortality from both neurodegeneration and cardiomyopathy.
Female CD-1 mice at approximately 16 weeks of age were divided into weight-matched groups of 10 mice each. All mice received daily intraperitoneal injections of 3-NP (60 mg/kg) in a volume of 0.01 ml per gram of body weight.
In addition to daily injections of 3-NP, the three groups of mice received 1) Vehicle; 2) UTA; or 3) AcAcDAU. This experiment used the AcAcDAU from Example 2. These treatments were administered orally, by gavage, in a volume of 0.02 ml per gram of body weight.
• 1. Vehicle Control (0.75% HPMC; hydroxypropylmethylcellulose) • 2. Uridine triacetate 1000 mg/kg BID (suspended in 0.75% HPMC) • 3. AcAcDAU 1113.5 mg/kg (molar equivalent to 1000 mg/kg UTA) BID (dissolved in 0.75% HPMC)
(§3) Body weights were recorded each day to adjust drug doses as mice lost weight during repeated treatment with 3-NP.
Survival times (median survival; the time point at which 50% of animals in a group had died) and percent survival at the end of the 11 day study were used to quantify and compare protective effects of the test agents.

[4] = test system: mice receiving 60 mg/kg/day 3-nitropropionic acid (progressive mitochondrial failure); assay: Protection against mortality due to 3-nitropropionic acid, higher doses (Example 7, 10 day study); assay type: in vivo; settings: for survival time versus vehicle alone: UTA 2000 mg/kg or AcAcDAU 2227 mg/kg b.i.d.; for % Survival: end of 10 day study, 3-NP 60 mg/kg/day ip, UTA 2000 mg/kg b.i.d. or AcAcDAU 2227 mg/kg b.i.d. oral
Protocol: In this example the effect of higher doses of UTA (2000 mg/kg/dose) versus equimolar AcAcDAU (2227 mg/kg/dose) were compared in the same model system.
• 1. Vehicle Control (0.75% HPMC; hydroxypropylmethylcellulose) • 2. Uridine triacetate 2000 mg/kg BID (suspended in 0.75% HPMC)
AcAcDAU 2227 mg/kg (molar equivalent to 2000 mg/kg UTA) BID (dissolved in 0.75% HPMC). This experiment used the AcAcDAU from Example 2. The treatment schedule was as follows:
as §3
Percent survival of mice in each group of 10 mice at the end of the 10 day study were used to quantify and compare protective effects of the test agents.

[5] = humans; cited from earlier work
[6] = mice; cited from earlier work

Compound | systemic uridine delivery after oral administration [1] | Median Survival [3] [days] | survival time versus vehicle alone ([3]; result in words) | % Survival [3] | survival time versus vehicle alone ([4]; result in words) | % Survival [4] | also measured
CC(=O)CC(=O)OC[C@H]1O[C@@H](n2ccc(=O)[nH]c2=O)[C@H](O)[C@@H]1O [AcAcU, 5′-O-(acetoacetyl)uridine] | delivered little uridine |  |  |  |  |  | 
CCCCCCC(=O)OC[C@H]1O[C@@H](n2ccc(=O)[nH]c2=O)[C@H](OC(C)=O)[C@@H]1OC(C)=O [DA-HU, 2′,3′-di-O-acetyl-5′-O-heptanoyluridine, reference compound] | relatively poor |  |  |  |  |  | 
CC(=O)CC(=O)OC[C@H]1O[C@@H](n2ccc(=O)[nH]c2=O)[C@H](OC(C)=O)[C@@H]1OC(C)=O [AcAcDAU, 5′-O-(acetoacetyl)-2′,3′-di-O-acetyluridine] |  | >11 | improved survival time | 50% (2/10) | improved survival time | 100% (10/10) | delivery of uridine and uridine catabolites ([uridine+uracil]) into the circulation compared with equimolar uridine triacetate ([1]; oral, equimolar to 600 mg/Kg UTA, AcAcDAU was the 9.4:1 mixture from Example 1, result in words): more; Plasma beta-hydroxybutyrate after oral administration [2]: elevated; Plasma uracil after oral administration [2]: elevated; Plasma uridine after oral administration [2]: elevated; median survival time compared with UTA ([3]; AcAcDAU 1113.5 mg/kg b.i.d. vs equimolar UTA, result in words): longer; survival at the 10 day time point compared with equimolar UTA ([4]; AcAcDAU 2227 mg/kg b.i.d. vs UTA 2000 mg/kg b.i.d., result in words): better survival
CC(=O)CC(=O)OC[C@H]1O[C@@H](n2ccc(=O)[nH]c2=O)[C@H](OC(=O)CC(C)=O)[C@@H]1OC(=O)CC(C)=O [Tri-AcAcU, 2′,3′,5′-tri-O-(acetoacetyl)uridine, reference compound] | relatively poor |  |  |  |  |  | 
O=c1ccn([C@@H]2O[C@H](CO)[C@@H](O)[C@H]2O)c(=O)[nH]1 [uridine] |  |  |  |  |  |  | bioavailability (oral delivery) [5]: approximately 7%; bioavailability (oral delivery) [6]: approximately 7%
CC(=O)OC[C@H]1O[C@@H](n2ccc(=O)[nH]c2=O)[C@H](OC(C)=O)[C@@H]1OC(C)=O [UTA, 2′,3′,5′-tri-O-acetyluridine, reference compound] |  | 7 | improved survival time | 30% (5/10) | improved survival time | 70% (7/10) | 
